Experimental data as given in ChEMBL document CHEMBL1201862, “PubChem BioAssay data set” (2004).
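Test compounds were applied to cells in 96-well plates for 48 hours at 5 doses. Here, GI50 denotes the concentration required for 50% inhibition of growth.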 Calls of active or inactive are those of the source. Cut-off read from the data, not from the text of the source: active = GI50 up to about 1.1 µM and inactive = higher.

What was measured:
Assay in all cases: growth of human tumour cells (NCI), 48 h
[1] = test system: HCC 2998
[2] = test system: A498
[3] = test system: RXF 393
[4] = test system: KM12
[5] = test system: OVCAR-4
[6] = test system: UO-31
[7] = test system: IGROV-1
[8] = test system: HL-60
[9] = test system: HCT-15
[10] = test system: RPMI-8226
[11] = test system: Malme-3M
[12] = test system: NCI-H23
[13] = test system: OVCAR-8
[14] = test system: SK-MEL-2
[15] = test system: LOX IMVI
[16] = test system: UACC-257
[17] = test system: KM-20L2
[18] = test system: M14
[19] = test system: SF-295
[20] = test system: CAKI-1
[21] = test system: COLO 205
[22] = test system: SR
[23] = test system: HCT-116
[24] = test system: OVCAR-5
[25] = test system: HT-29
[26] = test system: EKVX
[27] = test system: SF-268
[28] = test system: K562
[29] = test system: SW-620
[30] = test system: SK-OV-3
[31] = test system: DLD-1
[32] = test system: SK-MEL-5
[33] = test system: DMS-114
[34] = test system: UACC-62
[35] = test system: U-251
[36] = test system: SNB-19
[37] = test system: A549
[38] = test system: OVCAR-3
[39] = test system: SN12C
[40] = test system: NCI-H460
[41] = test system: XF498
[42] = test system: NCI-H522
[43] = test system: 786-0
[44] = test system: TK-10
[45] = test system: DMS-273
[46] = test system: SK-MEL-28
[47] = test system: LXFL 529
[48] = test system: HOP-62
[49] = test system: M19-MEL
[50] = test system: ACHN
[51] = test system: SF-539
[52] = test system: SNB-75
[53] = test system: MOLT-4
[54] = test system: CCRF-CEM
[55] = test system: HOP-18
[56] = test system: SNB-78

Which results are given for `Cc1cn(C2CC(CCCO)C(CO)O2)c(=O)[nH]c1=O` (stereo not given)?
GI50 [1]: > 100 µM (inactive); GI50 [2]: > 100 µM (inactive); GI50 [3]: > 100 µM (inactive); GI50 [4]: > 100 µM (inactive); GI50 [5]: > 100 µM (inactive); GI50 [6]: > 100 µM (inactive); GI50 [7]: > 100 µM (inactive); GI50 [8]: > 100 µM (inactive); GI50 [9]: > 100 µM; GI50 [10]: > 100 µM (inactive); GI50 [11]: > 100 µM (inactive); GI50 [12]: > 100 µM (inactive); GI50 [13]: > 100 µM (inactive); GI50 [14]: > 100 µM (inactive); GI50 [15]: > 100 µM (inactive); GI50 [16]: > 100 µM (inactive); GI50 [17]: > 100 µM (inactive); GI50 [18]: > 100 µM (inactive); GI50 [19]: > 100 µM (inactive); GI50 [20]: > 100 µM (inactive); GI50 [21]: > 100 µM (inactive); GI50 [22]: > 100 µM (inactive); GI50 [23]: > 100 µM (inactive); GI50 [24]: > 100 µM (inactive); GI50 [25]: > 100 µM (inactive); GI50 [26]: > 100 µM (inactive); GI50 [27]: > 100 µM (inactive); GI50 [28]: > 100 µM (inactive); GI50 [29]: > 100 µM (inactive); GI50 [30]: > 100 µM (inactive); GI50 [31]: > 100 µM (inactive); GI50 [32]: > 100 µM (inactive); GI50 [33]: > 100 µM (inactive); GI50 [34]: > 100 µM (inactive); GI50 [35]: > 100 µM (inactive); GI50 [36]: > 100 µM (inactive); GI50 [37]: > 100 µM (inactive); GI50 [38]: > 100 µM (inactive); GI50 [39]: > 100 µM (inactive); GI50 [40]: > 100 µM (inactive); GI50 [41]: > 100 µM (inactive); GI50 [42]: > 100 µM (inactive); GI50 [43]: > 100 µM (inactive); GI50 [44]: > 100 µM (inactive); GI50 [45]: > 100 µM (inactive); GI50 [46]: > 100 µM (inactive); GI50 [47]: > 100 µM (inactive); GI50 [48]: > 100 µM (inactive); GI50 [49]: > 100 µM (inactive); GI50 [50]: > 100 µM (inactive)

What does the source list for `CN(C)CC/C(=N\Nc1c(F)c(F)c(F)c(F)c1F)c1ccccc1`?
GI50 [2]: 74.5 µM (inactive); GI50 [3]: 22 µM (inactive); GI50 [51]: 40.2 µM (inactive); GI50 [4]: 48.5 µM (inactive); GI50 [5]: 16.9 µM (inactive); GI50 [52]: 3.35 µM (inactive); GI50 [6]: 7.38 µM (inactive); GI50 [7]: 22.2 µM (inactive); GI50 [53]: 19.2 µM (inactive); GI50 [8]: 9.68 µM (inactive); GI50 [9]: 35.3 µM; GI50 [10]: 19 µM (inactive); GI50 [11]: 36.9 µM (inactive); GI50 [12]: 77.1 µM (inactive); GI50 [13]: 93.3 µM (inactive); GI50 [14]: 32.7 µM (inactive); GI50 [15]: 32.7 µM (inactive); GI50 [16]: 24.1 µM (inactive); GI50 [17]: 35.6 µM (inactive); GI50 [18]: > 10 µM (inactive); GI50 [19]: 38.5 µM (inactive); GI50 [21]: > 100 µM (inactive); GI50 [22]: 17.6 µM (inactive); GI50 [23]: 86.9 µM (inactive); GI50 [24]: 49.9 µM (inactive); GI50 [25]: 35.8 µM (inactive); GI50 [54]: 21.2 µM (inactive); GI50 [26]: > 100 µM (inactive); GI50 [27]: 90.4 µM (inactive); GI50 [28]: 20.4 µM (inactive); GI50 [29]: 74.8 µM (inactive); GI50 [30]: 3.32 µM (inactive); GI50 [31]: 8.63 µM (inactive); GI50 [32]: 14.2 µM (inactive); GI50 [55]: 23.6 µM (inactive); GI50 [33]: 25.5 µM (inactive); GI50 [34]: 34.5 µM (inactive); GI50 [35]: 42.4 µM (inactive); GI50 [36]: 54.1 µM (inactive); GI50 [37]: 31.6 µM (inactive); GI50 [38]: > 10 µM (inactive); GI50 [39]: 37.8 µM (inactive); GI50 [40]: 28 µM (inactive); GI50 [42]: 14.3 µM (inactive); GI50 [43]: 82.4 µM (inactive); GI50 [44]: 62.7 µM (inactive); GI50 [56]: 41.1 µM (inactive); GI50 [45]: 29.2 µM (inactive); GI50 [46]: > 100 µM (inactive); GI50 [47]: 42.3 µM (inactive); GI50 [48]: > 10 µM (inactive); GI50 [49]: 70.1 µM (inactive); GI50 [50]: 30.9 µM (inactive)

With `CCOC(=O)c1c[nH]c2c(ccc3ncccc32)c1=O` as the compound, how does the GI50 [1] read?
The GI50 was > 100 µM (inactive).

What about the GI50 [2] of the same compound?
The GI50 was > 100 µM (inactive).

And the GI50 [3]?
The GI50 was > 100 µM (inactive).

What about the GI50 [51] of the same compound?
Its GI50 is > 100 µM (inactive).

What about the GI50 [4] of the same compound?
The GI50 was > 100 µM (inactive).

What about the GI50 [5] of the same compound?
Its GI50 is > 100 µM (inactive).

And the GI50 [52]?
Its GI50 is > 100 µM (inactive).

What about the GI50 [6] of the same compound?
The GI50 was > 100 µM (inactive).

And the GI50 [7]?
The GI50 was > 100 µM (inactive).

What about the GI50 [53] of the same compound?
The GI50 was > 100 µM (inactive).

And the GI50 [8]?
Its GI50 is > 100 µM (inactive).

And the GI50 [9]?
The GI50 was greater than 100 µM.

What about the GI50 [11] of the same compound?
Its GI50 is > 100 µM (inactive).

And the GI50 [12]?
Its GI50 is > 100 µM (inactive).

And the GI50 [13]?
The GI50 was > 100 µM (inactive).

What about the GI50 [14] of the same compound?
The GI50 was > 100 µM (inactive).

What about the GI50 [15] of the same compound?
Its GI50 is > 100 µM (inactive).

And the GI50 [16]?
The GI50 was > 100 µM (inactive).

And the GI50 [17]?
Its GI50 is > 100 µM (inactive).

And the GI50 [18]?
Its GI50 is > 100 µM (inactive).

And the GI50 [21]?
Its GI50 is > 100 µM (inactive).

And the GI50 [22]?
The GI50 was > 100 µM (inactive).

What about the GI50 [23] of the same compound?
The GI50 was > 100 µM (inactive).

And the GI50 [24]?
The GI50 was > 100 µM (inactive).

What about the GI50 [25] of the same compound?
The GI50 was > 100 µM (inactive).

And the GI50 [54]?
The GI50 was > 100 µM (inactive).

What about the GI50 [26] of the same compound?
The GI50 was > 100 µM (inactive).

What about the GI50 [27] of the same compound?
Its GI50 is > 100 µM (inactive).

And the GI50 [28]?
Its GI50 is > 100 µM (inactive).

And the GI50 [29]?
The GI50 was > 100 µM (inactive).

And the GI50 [30]?
Its GI50 is > 100 µM (inactive).

What about the GI50 [31] of the same compound?
Its GI50 is > 100 µM (inactive).

And the GI50 [32]?
The GI50 was > 100 µM (inactive).

And the GI50 [55]?
The GI50 was > 100 µM (inactive).

And the GI50 [33]?
Its GI50 is > 100 µM (inactive).

And the GI50 [34]?
The GI50 was > 100 µM (inactive).

What about the GI50 [35] of the same compound?
Its GI50 is > 100 µM (inactive).

And the GI50 [36]?
The GI50 was > 100 µM (inactive).

And the GI50 [37]?
Its GI50 is > 100 µM (inactive).

What about the GI50 [38] of the same compound?
Its GI50 is > 100 µM (inactive).

What about the GI50 [39] of the same compound?
Its GI50 is > 100 µM (inactive).

And the GI50 [40]?
The GI50 was > 100 µM (inactive).

What about the GI50 [42] of the same compound?
The GI50 was > 100 µM (inactive).

And the GI50 [43]?
The GI50 was > 100 µM (inactive).

What about the GI50 [44] of the same compound?
The GI50 was > 100 µM (inactive).

And the GI50 [56]?
Its GI50 is > 100 µM (inactive).

And the GI50 [45]?
Its GI50 is > 100 µM (inactive).

What about the GI50 [46] of the same compound?
The GI50 was > 100 µM (inactive).

And the GI50 [47]?
Its GI50 is > 100 µM (inactive).

What about the GI50 [48] of the same compound?
Its GI50 is > 100 µM (inactive).

And the GI50 [49]?
The GI50 was > 100 µM (inactive).

What about the GI50 [50] of the same compound?
The GI50 was > 100 µM (inactive).
